Experimental data taken from PubChem BioAssay AID330 (DTP/NCI, 2004).
Several values for one entry are separate records, joined by “and”; a condition that tells them apart may be missing. Equal values may be shown once. Inconclusive results and toxic doses are left out.

Tested on: P388 leukemia ip, CD2F1 mice, survival T/C
Assay: NCI In Vivo Anticancer Drug Screen. Data for tumor model P388 Leukemia (intraperitoneal) in CD2F1 (CDF1) mice
Details: endpoint: median survival time, higher = longer survival
Procedure, shortened: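 Mice carrying the transplanted tumor received test compound or vehicle. Survival was recorded in each group, and the value is the treated-group measurement divided by that of the vehicle-treated control group.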

[1] = dose: 25.0 mg/kg/injection, schedule: Q01DX009 (ip), vehicle: saline with Tween-80
[2] = dose: 50.0 mg/kg/injection, schedule: Q01DX009 (ip), vehicle: saline with Tween-80
[3] = dose: 100.0 mg/kg/injection, schedule: Q01DX009 (ip), vehicle: saline with Tween-80

## CC(C)(C)c1ccc(S(=O)[O][Sn]([CH3])([CH3])[O]S(=O)c2ccc(C(C)(C)C)cc2)cc1 (stereo unspecified)
dose: 50.0 mg/kg/injection, schedule: Q01DX001 (ip), vehicle: Klucel (hydroxypropylcellulose) (HPC)
  T/C: 110 % of control
dose: 200.0 mg/kg/injection, schedule: Q01DX001 (ip), vehicle: Klucel (hydroxypropylcellulose) (HPC)
  T/C: 114 % of control

## O=S1(=O)c2ccccc2C(N2CCCCC2)C1CCCCC1C(N2CCCCC2)c2ccccc2S1(=O)=O (stereo unspecified)
dose: 100.0 mg/kg/injection, schedule: Q04DX002 (ip), vehicle: saline with Tween-80
  T/C: 100 % of control
dose: 200.0 mg/kg/injection, schedule: Q04DX002 (ip), vehicle: saline with Tween-80
  T/C: 98 % of control
dose: 400.0 mg/kg/injection, schedule: Q04DX002 (ip), vehicle: saline with Tween-80
  T/C: 99 % of control

## O=C(O)C1CCN1C1CCCCC1 (stereo unspecified)
dose: 100.0 mg/kg/injection, schedule: Q01DX009 (ip), vehicle: saline sonified
  T/C: 90 % of control
dose: 200.0 mg/kg/injection, schedule: Q01DX009 (ip), vehicle: saline sonified
  T/C: 100 % of control
dose: 400.0 mg/kg/injection, schedule: Q01DX009 (ip), vehicle: saline sonified
  T/C: 104 % of control

## CCCN(CCNc1cc(OC)cc2cccnc12)C(C)C
dose: 12.5 mg/kg/injection, schedule: Q01DX005 (ip), vehicle: saline
  T/C: 107 % of control
dose: 25.0 mg/kg/injection, schedule: Q01DX005 (ip), vehicle: saline
  T/C: 107 % of control
dose: 50.0 mg/kg/injection, schedule: Q01DX005 (ip), vehicle: saline
  T/C: 106 % of control and 88 % of control

## COc1ccc(NC(=O)c2cc3c(cc2Br)OCO3)cc1
dose: 12.5 mg/kg/injection, schedule: Q01DX009 (ip), vehicle: other
  T/C: 102 % of control
dose: 25.0 mg/kg/injection, schedule: Q01DX009 (ip), vehicle: other
  T/C: 96 % of control
dose: 50.0 mg/kg/injection, schedule: Q01DX009 (ip), vehicle: other
  T/C: 100 % of control
dose: 100.0 mg/kg/injection, schedule: Q01DX009 (ip), vehicle: other
  T/C: 93 % of control
dose: 200.0 mg/kg/injection, schedule: Q01DX009 (ip), vehicle: other
  T/C: 99 % of control
dose: 400.0 mg/kg/injection, schedule: Q01DX009 (ip), vehicle: other
  T/C: 89 % of control

## N=C(N)c1ccc2[nH]c(/C=C/c3cc4ccc(C(=N)N)cc4o3)cc2c1
dose: 100.0 mg/kg/injection, schedule: Q04DX003 (ip), vehicle: suspension in saline
  T/C: 170 % of control

## O=c1cc[nH]cc1[N+](=O)[O-]
dose: 12.5 mg/kg/injection, schedule: Q01DX009 (ip), vehicle: distilled water + Tween-80
  T/C: 93 % of control
dose: 25.0 mg/kg/injection, schedule: Q01DX009 (ip), vehicle: distilled water + Tween-80
  T/C: 98 % of control
[1]
  T/C: 99 % of control
dose: 50.0 mg/kg/injection, schedule: Q01DX009 (ip), vehicle: distilled water + Tween-80
  T/C: 108 % of control
[2]
  T/C: 98 % of control
dose: 100.0 mg/kg/injection, schedule: Q01DX009 (ip), vehicle: distilled water + Tween-80
  T/C: 101 % of control
[3]
  T/C: 105 % of control
dose: 100.0 mg/kg/injection, schedule: Q01DX009 (ip), vehicle: saline
  T/C: 104 % of control and 108 % of control
dose: 200.0 mg/kg/injection, schedule: Q01DX009 (ip), vehicle: distilled water + Tween-80
  T/C: 107 % of control
dose: 200.0 mg/kg/injection, schedule: Q01DX009 (ip), vehicle: saline with Tween-80
  T/C: 104 % of control
dose: 200.0 mg/kg/injection, schedule: Q01DX009 (ip), vehicle: saline
  T/C: 100 % of control and 92 % of control

## CC1=CCCC1C1C=CCC1 (stereo unspecified) (tested in a mixture with another compound)
[1]
  T/C: 102 % of control
[2]
  T/C: 103 % of control and 105 % of control
[3]
  T/C: 116 % of control

## Cc1ncc(C(O)c2ccc(Cl)cc2)n1Cc1ccccc1 (stereo unspecified)
dose: 60.0 mg/kg/injection, schedule: Q01DX005 (ip), vehicle: saline with Tween-80
  T/C: 96 % of control
dose: 120.0 mg/kg/injection, schedule: Q01DX005 (ip), vehicle: saline with Tween-80
  T/C: 104 % of control
dose: 240.0 mg/kg/injection, schedule: Q01DX005 (ip), vehicle: saline with Tween-80
  T/C: 99 % of control

## COC(=O)[C@@]12OC[C@]34[C@H]([C@@H](O)[C@@H]1O)[C@@]1(C)[C@H](O)C(=O)C=C(C)[C@@H]1C[C@H]3OC(=O)C(OC(C)=O)[C@@H]24 (stereo partly specified)
dose: 0.1 micrograms/kg/injection, schedule: Q01DX009 (ip), vehicle: saline + alcohol
  T/C: 96 % of control
dose: 0.2 micrograms/kg/injection, schedule: Q01DX009 (ip), vehicle: saline + alcohol
  T/C: 102 % of control
dose: 0.5 micrograms/kg/injection, schedule: Q01DX009 (ip), vehicle: saline + alcohol
  T/C: 105 % of control
dose: 1.0 micrograms/kg/injection, schedule: Q01DX009 (ip), vehicle: saline + alcohol
  T/C: 93 % of control
dose: 2.0 micrograms/kg/injection, schedule: Q01DX009 (ip), vehicle: saline + alcohol
  T/C: 100 % of control
dose: 4.0 micrograms/kg/injection, schedule: Q01DX009 (ip), vehicle: saline + alcohol
  T/C: 88 % of control
